{"source": "patent US11939361B2", "about": "“Compositions of peptide inhibitors of Interleukin-23 receptor” (Janssen Pharmaceutica NV, priority 2020, dated 2024)", "key": {"[1]": {"details": "in vivo"}, "[2]": {"test_system": "IL-23 and IL-1β-induced IL-17A secretion in whole blood", "experiment": "Rat whole blood assay ex vivo after oral dosing, IL-17A ELISA", "format": "in vivo, Sprague-Dawley rats", "details": "for inhibition of IL-23 and IL-1β-induced IL-17A secretion in whole blood: p.o., blood 2 h after dosing; for IC50: orally dosed rats, read-out: dilution-adjusted ex vivo IC50", "source_text": "A rat whole blood assay was used to evaluate the systemic pharmacologic activity of the orally administered peptide of SEQ ID NO: 1. After oral dosing Sprague-Dawley rats with the peptide of SEQ ID NO: 1, blood was drawn from the rats and stimulated ex-vivo with rat IL-23 plus IL-1β. An ELISA assay was used to measure the presence of IL-17A. The production of IL-17A is expected to be suppressed if IL-23 is inhibited. This assay confirms that systemic exposure of orally dosed peptide of SEQ ID NO: 1 is associated with systemic activity, as measured by lower IL-17A production.\nTwo or six hours after dosing, animals were euthanized and blood collected as described based on the following.\nFor determination of peptide concentration, an aliquot of blood from peptide-treated rats was deposited into K2EDTA microtainer tubes and processed to plasma by centrifugation at 16,100×g for 5 minutes. Plasma was deposited into 5% volume of protease inhibitor (1 cocktail tablet dissolved in 2 mL PBS without Ca^++ and Mg^++) and stored at −80° C. for bioanalysis of test article by LCMS. The remainder of each blood sample was separately diluted in pre-warmed RPMI-1640 (with glutamine and HEPES) at a ratio of one part blood to four parts medium. The diluted blood was mixed by pipetting and kept at room temperature while working stocks of rat IL-23 and IL-1β were prepared in RPMI-1640. The blood was mixed again and 240 μL was pipetted per well into 96-well, round-bottom assay plates, followed by IL-23 and IL-1β stimulation as described below.\nA total of 10 μL of medium supplemented with IL-23 and IL-1β or IL-1β alone was added to each well of diluted blood such that the final concentration of IL-23 was 100, 20, or 4 ng/mL and the final concentration of IL-1β was 4 ng/mL. The assay plates were incubated at 37° C. in 5% CO2. After ˜24 hours, the assay plates were centrifuged at 1,300 rpm for 6 minutes at room temperature, and at least 100 μL of cell culture supernatant were collected into 96-well, V-bottom plates. The plates containing supernatants were sealed and placed on ice for immediate measurement of IL-17A or frozen at −80° C.\nTo measure IL-17A in cell culture supernatants, the thawed supernatants were centrifuged at 1,300 rpm for 10 minutes at 4° C. A total of 20 μL of cell culture supernatant was mixed with 80 μL of NS buffer (provided with the rat IL-17A ELISA kit). The diluted samples as well as a freshly prepared serial titration of rat IL-17A (for standard curve) were combined with affinity tag labeled capture and reporter conjugated detector antibodies in 96-well plates (provided with the rat IL-17A ELISA kit). Following a 1-hour incubation at room temperature with shaking, each well was washed 3 times with 350 μL/well wash buffer. After the final wash, the plates were inverted and blotted to remove excess liquid. The plates were developed with TMB substrate for 10 minutes, protected from light, with shaking. After stopping the colorimetric reaction, the absorbance in individual wells was read at 450 nm using a SpectraMax 340PC plate reader.\nA standard curve was generated in duplicate for each ELISA plate. The standard curve data were analyzed with a four-parameter curve fit with 1/y^2 weighting using SoftMax Pro software. Supernatant IL-17A levels were interpolated or extrapolated from plate-specific standard curves using non-background subtracted optical density at 450 nm (OD450) values in SoftMax Pro and corrected for the dilution factor used in the ELISA assay in Microsoft Excel."}, "[3]": {"test_system": "IL-23-induced IL-17A secretion", "experiment": "In vitro rat whole blood assay of IL-23-induced IL-17A secretion", "format": "cell-based"}}, "note": "Where “and” joins values, the source holds several entries; their conditions need not be identical. Equal values may be shown once. Read-outs that look alike come from different tables or passages of the source.", "data": [{"molecule": "CC(=O)NCCCC[C@@H]1NC(=O)[C@H](Cc2c[nH]c3c(C)cccc23)NC(=O)[C@H]([C@@H](C)O)NC(=O)[C@H](CC(N)=O)NC(=O)[C@@H](NC(C)=O)C(C)(C)SSC(C)(C)[C@@H](C(=O)N[C@@H](Cc2ccc(OCCN)cc2)C(=O)N[C@@H](Cc2ccc3ccccc3c2)C(=O)NC2(C(=O)N[C@@H](CCC(=O)O)C(=O)N[C@@H](CC(N)=O)C(=O)N[C@@H](Cc3cccnc3)C(=O)N(C)CC(N)=O)CCOCC2)NC1=O", "note": "[SEQ ID NO: 1, Ac-[Pen]*—N-T-[W(7-Me)]-[Lys(Ac)]-[Pen]*-Phe[4-(2-aminoethoxy)]-[2-Nal]-[THP]-E-N-[3-Pal]-Sarc-NH2]", "values": [{"measurement": "mean accumulation for AUC", "setting": "[1]; human", "value": "13-50%"}, {"measurement": "Systemic exposure (Cmax and AUC) versus dose", "setting": "[1]", "value": "approximately dose-proportional"}, {"measurement": "median IL-17A production relative to vehicle control", "setting": "[2]; 10 mg/kg p.o., 2 hours post-dosing, 100, 20, or 4 ng/mL IL-23 and 4 ng/mL IL-1β", "value": "significantly reduced"}, {"measurement": "median IL-17A levels", "setting": "[2]; 10 mg/kg p.o., 6 hours post-dosing, 4 ng/mL IL-23", "value": "significant decrease"}, {"measurement": "effect on ex vivo IL-17A response", "setting": "[2]; 10 mg/kg p.o., 6 hours post-dosing, 100 and 20 ng/mL IL-23 and IL-1β", "value": "no significant effect"}, {"measurement": "inhibition of IL-23 and IL-1β-induced IL-17A secretion in whole blood", "setting": "[2]; 0.03-100 mg/kg", "value": "dose-dependent inhibition"}, {"measurement": "inhibition of IL-23 and IL-1β-induced IL-17A secretion in whole blood", "setting": "[2]; doses of 1 mg/kg or lower", "value": "limited effect"}, {"measurement": "inhibition of IL-23 and IL-1β-induced IL-17A secretion in whole blood", "setting": "[2]; doses of 30 and 100 mg/kg", "value": "complete or nearly complete inhibition"}, {"measurement": "IC50", "setting": "[2]; blood challenged with 4 ng/mL IL-23 plus 4 ng/mL IL-1β", "value": 0.032, "unit": "nM"}, {"measurement": "IC50", "setting": "[2]; blood challenged with 20 ng/mL IL-23 plus 4 ng/mL IL-1β", "value": 0.27, "unit": "nM"}, {"measurement": "IC50", "setting": "[3]; read-out: IC50 at 4 ng/mL IL-23 stimulation, individual vehicle-dosed rats, plus 4 ng/mL IL-1β, listed as peptide of SEQ ID NO: 1", "value": "0.012 nM and 0.027 nM and 0.045 nM and 0.013 nM and 0.06 nM and 0.066 nM"}, {"measurement": "IC50", "setting": "[3]; read-out: IC50 at 4 ng/mL IL-23 stimulation, pooled blood (n = 6 naïve rats), plus 4 ng/mL IL-1β, listed as peptide of SEQ ID NO: 1", "value": "0.1 nM and 0.11 nM"}, {"measurement": "IC50", "setting": "[3]; read-out: IC50 at 20 ng/mL IL-23 stimulation, individual vehicle-dosed rats, listed as peptide of SEQ ID NO: 1", "value": "0.24 nM and 0.16 nM and 0.22 nM and 0.23 nM and 0.34 nM and 0.29 nM"}, {"measurement": "IC50", "setting": "[3]; read-out: Mean IC50 at 4 ng/mL IL-23 stimulation, in vitro rat whole blood, mean of all experiments", "value": "0.054 ± 0.034", "unit": "nM"}, {"measurement": "IC50", "setting": "[3]; read-out: Mean IC50 at 20 ng/mL IL-23 stimulation, in vitro rat whole blood, n=6 rats", "value": "0.25 ± 0.062", "unit": "nM"}]}]}
